Consider five molecules from US7060731B2, “Use of amines” (Amersham Health AS, priority 2000, dated 2006).

Each structure is given as a SMILES string.

Holding throughout (type): biochemical
Assay [1] concerns alternative pathway of complement (ZAS activated). Nature of the assay: In vitro complement activation of human serum by Zymosan A (ZAS), comparison of meglumine analogues. Conditions: FIG. 6. Here is the method:
(§1) A method for investigation of the ability of different agents to activate the complement system in vitro is described. Briefly, human serum is exposed to the different agents for 30 min at 37Ec. The activation is stopped by placing the samples in an ice-water bath and immediately add cold EDTA-solution at a final concentration of 15 mM. The latter stops further activation by chelating calcium and magnesium ions. The degree of activation is subsequently determined by using commercially available enzyme immunoassays (EIA) for determination of specific complement activation products. In these experiments C3a-desArg or SC5b-9 have been used, representing early pathway activation and terminal pathway activation respectively.
In order to investigate and compare the inhibitory effects on in vitro complement activation of other compounds with structural resemblance to meglumine (N-methyl-D-glucamine), a new study was performed. The new test substances chosen were N-methyl-mannosamine, 3-methylamino-1,2-propanediol and 2-(methylamino)ethanol.
Human serum was exposed to Zymosan A (ZAS), a strong activator of the alternative pathway of complement, at three different concentrations (5, 2 and 1 mg/mL serum). The complement activation induced by ZAS alone was compared with that obtained when adding the different test substances at two different concentrations to the ZAS-activated serum. In addition to the three chosen test substances meglumine was included for comparison.
To investigate the inhibitory effects of the test substances at a concentration corresponding to what is given of meglumine when injecting contrast agents such as Hexabrix, a concentration of 5.3 mg/mL serum was used. […] Complement activation induced by ZAS both at 2 and 1 mg/mL, was inhibited by meglumine, 3-methylamino-1,2-propanediol and 2-(methylamino)-ethanol. […] It should be noted that although the concentration of ZAS was reduced, the complement activation obtained was much higher than what would be expected in vivo. Thus meglumine, 3-methylamino-1,2-propanediol and 2-(methylamino)-ethanol seem to be very effective in controlling complement activation.

Assay [2] concerns complement system (early pathway activation, C3a-desArg). The assay can be described thus: In vitro complement activation by X-ray contrast agents in human serum, C3a-desArg EIA. The settings on record: for inhibition of complement activation induced by Visipaque: substance added to Visipaque, human serum. Here is the method:
A method for investigation of the ability of different agents to activate the complement system in vitro is described. Briefly, human serum is exposed to the different agents for 30 min at 37Ec. The activation is stopped by placing the samples in an ice-water bath and immediately add cold EDTA-solution at a final concentration of 15 mM. The latter stops further activation by chelating calcium and magnesium ions. The degree of activation is subsequently determined by using commercially available enzyme immunoassays (EIA) for determination of specific complement activation products. In these experiments C3a-desArg or SC5b-9 have been used, representing early pathway activation and terminal pathway activation respectively. The concentrations of contrast agents used in vitro in these experiments is based on the following assumptions: One of the applied clinical doses (ACD) used in vivo is 150 mL Visipaque at a concentration of 320 mg I/mL. For a person of 70 kg with a blood volume of about 5.5 L and a plasma fraction of about 3.5 L, the ACD corresponds to 13.7 mg I/mL serum in the test system. Five times this concentration (68.5 mgI/mL serum) was used for all contrast agents to cover maximum blood concentration immediately after bolus injection of the substances. Hexabrix and Visipaque with concentrations of 320 mg I/mL and phosphate buffered saline (at an equal volume) were added to human serum. Subsequently in vitro complement activation was performed as described previously followed by the determination of C3a-desArg. […] In order to investigate the effect of meglumine on complement activation, meglumine at different concentrations were added to Visipaque and in vitro complement activation was performed followed by determination of C3a-desArg. […] An expanded concentration response experiment (tighter concentration range) was subsequently performed. Ten concentrations of meglumine ranging from 0–18% (w/w) of the iodine content in Visipaque were used. […] The effects of meglumine (39% w/w of mg I/ml) on other non-ionic x-ray contrast agents were investigated. Iopamidol, Omnipaque, Ultravist and Visipaque were added to human serum at a final concentration of 68.5 mg I/mL. Subsequently in vitro complement activation was performed, followed by determination of C3a-desArg as previously described in the section “In vitro complement activation” and in Example 1.

Assay [3] concerns alternative pathway of complement (Zymosan A activated, SC5b-9). The assay can be described thus: In vitro complement activation by Zymosan A in human serum, SC5b-9 EIA. Conditions: Zymosan A 10 mg/mL serum, meglumine 390 mg/mL, 1 hour 37 C, FIG. 4. The method, then: as §1
(§2) The alternative and classical pathways represent the main ways of activating the complement system. The ability of meglumine to inhibit these pathways were investigated by using well known activators, Zymosan A (alternative pathway activator) and heat aggregated IgG (classical pathway activator). Zymosan A at 10 mg/mL serum or Zymosan A added meglumine at a final concentration of 39% (w/v) (390 mg/mL) was added to human serum and incubated for 1 hour at 37^EC on a vial roller. To obtain heat aggregated IgG, rabbit IgG at 30 mg/mL was incubated for 30 min at 65EC on a vial roller. […] The samples were analysed for SC5b-9. […]

Assay [4] relates to classical pathway of complement (heat aggregated IgG activated, SC5b-9). The assay can be described thus: In vitro complement activation by heat aggregated IgG in human serum, SC5b-9 EIA. Conditions: heat aggregated IgG 5 mg/mL serum, meglumine 390 mg/mL, FIG. 5. Here is the method:
as §1, §2

The subject of assay [5] is coagulation system (extrinsic pathway). Nature of the assay: Prothrombin time test (commercial). Here is the method:
(§3) As the body cascade systems are connected, the effects of meglumine on the coagulation system were investigated, by using commercial tests for prothrombin time (extrinsic pathway) and partial activated thromboplastin time (intrinsic pathway). Briefly, meglumine was added to the test systems at final concentrations of 4 mg/mL and 25 mg/mL. In the prothrombin time test meglumine increased the coagulation time by 20.5 and 72.7 seconds respectively. In the partial activated thromboplastin time test the coagulation time was increased by 6.2 and 117.9 seconds respectively. The control plasma heparin, supplied with the kit, increased the coagulation time by 36.4 seconds compared with normal plasma. Meglumine seems to prolong the coagulation time in a concentration dependent way, exceeding the time obtained for heparin plasma at the highest concentration used.

Assay [6] relates to coagulation system (intrinsic pathway). The assay can be described thus: Partial activated thromboplastin time test (commercial). Here is the method: as §3
Setting [7] is: ZAS 5 mg/mL serum, test substance 390 mg/mL.
Setting [8] is: ZAS 2 and 1 mg/mL serum, test substance 5.3 mg/mL serum.

With `CNCCO` [2-(methylamino)-ethanol], the “inhibition of in vitro complement activation induced by ZAS” value (from here on “inhibition … by ZAS”) in assay [1] (setting [7]) and in assay [1] (setting [8]) was “inhibited” throughout.
As to `CNCC(O)CO` (centres unmarked) [3-methylamino-1,2-propanediol], the “inhibition … by ZAS” value in assay [1] (setting [7]) and in assay [1] (setting [8]) was “inhibited” in each case.
For the molecule `OC[C@@H](O)[C@@H](O)[C@H](O)[C@H](O)CO` [Mannitol, reference compound], the “inhibition of complement activation induced by Visipaque” value in assay [2] (C3a-desArg) was “no inhibitory effects”.
With `CN[C@@H]1C(O)O[C@H](CO)[C@@H](O)[C@@H]1O` (some centres unmarked) [N-methyl-mannosamine], the “inhibition … by ZAS” value was “inhibited” in assay [1] (setting [7]) and “weaker inhibitory effect” in assay [1] (setting [8]).
For `CNC[C@H](O)[C@@H](O)[C@H](O)[C@H](O)CO` [meglumine, N-methyl-D-glucamine], the “inhibition of Visipaque-induced complement activation after pH adjustment” value in assay [2] (Visipaque with meglumine (pH 11) vs adjusted with HCl to pH 7.4, FIG. 3) is “not due to the high pH”. Further, in assay [2] (meglumine 0–32.5% added to Visipaque, C3a-desArg, FIG. 1), the “meglumine concentration at which an inhibitory effect was observed” value was 8–32.5 % (w/w) of the iodine content in Visipaque. The “inhibition of in vitro complement activation by non-ionic contrast agents (C3a-desArg)” value in assay [2] (meglumine 39% w/w of mg I/ml, Iopamidol, Omnipaque, Ultravist and Visipaque at 68.5 mg I/mL serum, FIG. 7) is listed as “inhibited”. Besides, the “inhibition of complement activation induced by Visipaque” value in assay [2] (C3a-desArg) is given as “abolished the complement activation”. Besides, the “lowest concentration of meglumine able to inhibit the complement activation” value in assay [2] (ten concentrations 0–18% (w/w) of iodine content in Visipaque, C3a-desArg, FIG. 2) is recorded as 6 % of the iodine content. Also, in assay [3], the “inhibition of alternative pathway activation of complement (SC5b-9)” value was “inhibited”. Moreover, the “inhibition of classical pathway activation of complement (SC5b-9)” value in assay [4] is reported as “inhibited”. Moreover, the “increase of coagulation time, prothrombin time test” value in assay [5] (final concentration 4 mg/mL) came to 20.5 s; in assay [5] (final concentration 25 mg/mL), 72.7 s. Also, the “increase of coagulation time, partial activated thromboplastin time test” value in assay [6] (final concentration 4 mg/mL) was found to be 6.2 s; in assay [6] (final concentration 25 mg/mL), 117.9 s. The “inhibition … by ZAS” value in assay [1] (setting [7]) and in assay [1] (setting [8]) was “inhibited” throughout.
